Data from the NIST ThermoML archive (doi:10.1021/acs.jced.5b00317).
Numbers after ± are expanded uncertainties.

Key:
[1] = mn = molality of the nth substance listed, in mol/kg; settings: 101 kPa, Liquid; for speed of sound: Sing-around technique in a fixed-path interferometer; for mass density: Vibrating tube method
[2] = cn = amount concentration of the nth substance listed, in mol/dm3; settings: 101 kPa, Liquid; for speed of sound: Sing-around technique in a fixed-path interferometer; for mass density: Vibrating tube method

Cc1onc(-c2c(F)cccc2Cl)c1C(=O)N[C@@H]1C(=O)N2[C@@H]1SC(C)(C)[C@@H]2C(=O)[O-].[Na+] + O
[1]
Settings	mass density [kg/m3]	speed of sound [m/s]
298.15 K, m1 = 0.03508	1003.21 ± 1	1503 ± 0.77
298.15 K, m1 = 0.05711	1007 ± 1	1506.4 ± 0.77
298.15 K, m1 = 0.07305	1009.68 ± 1	1508.6 ± 0.77
298.15 K, m1 = 0.09335	1013.04 ± 1	1511.2 ± 0.78
298.15 K, m1 = 0.1142	1016.42 ± 1	1513.7 ± 0.78
298.15 K, m1 = 0.1343	1019.68 ± 1	1515.8 ± 0.78
298.15 K, m1 = 0.148	1021.89 ± 1	1517.2 ± 0.78
298.15 K, m1 = 0.1675	1025.02 ± 1	1518.9 ± 0.79
298.15 K, m1 = 0.1812	1027.16 ± 1	1520.1 ± 0.79
303.15 K, m1 = 0.03508	1001.74 ± 1	1514.8 ± 0.77
303.15 K, m1 = 0.05711	1005.49 ± 1	1517.8 ± 0.78
303.15 K, m1 = 0.07305	1008.14 ± 1	1519.9 ± 0.78
303.15 K, m1 = 0.09335	1011.46 ± 1	1522.2 ± 0.78
303.15 K, m1 = 0.1142	1014.8 ± 1	1524.4 ± 0.78
303.15 K, m1 = 0.1343	1018.04 ± 1	1526.4 ± 0.79
303.15 K, m1 = 0.148	1020.23 ± 1	1527.6 ± 0.79
303.15 K, m1 = 0.1675	1023.33 ± 1	1529.2 ± 0.79
303.15 K, m1 = 0.1812	1025.46 ± 1	1530.2 ± 0.79
308.15 K, m1 = 0.03508	1000.05 ± 1	1524.9 ± 0.78
308.15 K, m1 = 0.05711	1003.77 ± 1	1527.6 ± 0.78
308.15 K, m1 = 0.07305	1006.39 ± 1	1529.5 ± 0.78
308.15 K, m1 = 0.09335	1009.67 ± 1	1531.6 ± 0.78
308.15 K, m1 = 0.1142	1012.98 ± 1	1533.5 ± 0.79
308.15 K, m1 = 0.1343	1016.18 ± 1	1535.3 ± 0.79
308.15 K, m1 = 0.148	1018.35 ± 1	1536.4 ± 0.79
308.15 K, m1 = 0.1675	1021.43 ± 1	1537.8 ± 0.79
308.15 K, m1 = 0.1812	1023.54 ± 1	1538.7 ± 0.8
313.15 K, m1 = 0.03508	998.174 ± 1	1533.5 ± 0.78
313.15 K, m1 = 0.05711	1001.85 ± 1	1535.9 ± 0.78
313.15 K, m1 = 0.07305	1004.44 ± 1	1537.5 ± 0.78
313.15 K, m1 = 0.09335	1007.69 ± 1	1539.4 ± 0.79
313.15 K, m1 = 0.1142	1010.97 ± 1	1541.1 ± 0.79
313.15 K, m1 = 0.1343	1014.14 ± 1	1542.7 ± 0.79
313.15 K, m1 = 0.148	1016.29 ± 1	1543.7 ± 0.79
313.15 K, m1 = 0.1675	1019.34 ± 1	1544.9 ± 0.8
313.15 K, m1 = 0.1812	1021.43 ± 1	1545.7 ± 0.8
318.15 K, m1 = 0.03508	996.11 ± 1	1540.5 ± 0.78
318.15 K, m1 = 0.05711	999.746 ± 1	1542.6 ± 0.78
318.15 K, m1 = 0.07305	1002.31 ± 1	1544.1 ± 0.79
318.15 K, m1 = 0.09335	1005.53 ± 1	1545.7 ± 0.79
318.15 K, m1 = 0.1142	1008.77 ± 1	1547.3 ± 0.79
318.15 K, m1 = 0.1343	1011.91 ± 1	1548.7 ± 0.79
318.15 K, m1 = 0.148	1014.05 ± 1	1549.5 ± 0.8
318.15 K, m1 = 0.1675	1017.07 ± 1	1550.6 ± 0.8
318.15 K, m1 = 0.1812	1019.15 ± 1	1551.4 ± 0.8
323.15 K, m1 = 0.03508	993.877 ± 1	1546.1 ± 0.78
323.15 K, m1 = 0.05711	997.477 ± 1	1548 ± 0.79
323.15 K, m1 = 0.07305	1000.02 ± 1	1549.2 ± 0.79
323.15 K, m1 = 0.09335	1003.2 ± 1	1550.7 ± 0.79
323.15 K, m1 = 0.1142	1006.42 ± 1	1552.1 ± 0.79
323.15 K, m1 = 0.1343	1009.52 ± 1	1553.3 ± 0.8
323.15 K, m1 = 0.148	1011.64 ± 1	1554 ± 0.8
323.15 K, m1 = 0.1675	1014.64 ± 1	1555 ± 0.8
323.15 K, m1 = 0.1812	1016.7 ± 1	1555.7 ± 0.8

[Cl-].[Na+] [sodium chloride] + O
[2]
Settings	mass density [kg/m3]	speed of sound [m/s]
298.15 K, c1 = 0.0251	998.068 ± 1	–
298.15 K, c1 = 0.0586	999.427 ± 1	1501.1 ± 0.76
298.15 K, c1 = 0.1021	1001.16 ± 1	1503.8 ± 0.76
298.15 K, c1 = 0.1483	1002.99 ± 1	1506.4 ± 0.77
298.15 K, c1 = 0.2047	1005.19 ± 1	1509.4 ± 0.77
298.15 K, c1 = 0.2543	1007.12 ± 1	1511.8 ± 0.77
303.15 K, c1 = 0.0251	996.654 ± 1	1511.3 ± 0.77
303.15 K, c1 = 0.0586	997.998 ± 1	1513.4 ± 0.77
303.15 K, c1 = 0.1021	999.715 ± 1	1516 ± 0.77
303.15 K, c1 = 0.1483	1001.52 ± 1	1518.5 ± 0.77
303.15 K, c1 = 0.2047	1003.7 ± 1	1521.4 ± 0.77
303.15 K, c1 = 0.2543	1005.61 ± 1	1523.6 ± 0.77
308.15 K, c1 = 0.0251	995.026 ± 1	1521.9 ± 0.77
308.15 K, c1 = 0.0586	996.357 ± 1	1524 ± 0.77
308.15 K, c1 = 0.1021	998.056 ± 1	1526.5 ± 0.77
308.15 K, c1 = 0.1483	999.851 ± 1	1528.9 ± 0.77
308.15 K, c1 = 0.2047	1002.01 ± 1	1531.6 ± 0.78
308.15 K, c1 = 0.2543	1003.9 ± 1	1533.7 ± 0.78
313.15 K, c1 = 0.0251	993.201 ± 1	1531 ± 0.77
313.15 K, c1 = 0.0586	994.523 ± 1	–
313.15 K, c1 = 0.1021	996.208 ± 1	1535.5 ± 0.78
313.15 K, c1 = 0.1483	997.991 ± 1	1537.8 ± 0.78
313.15 K, c1 = 0.2047	1000.14 ± 1	1540.3 ± 0.78
313.15 K, c1 = 0.2543	1002.01 ± 1	1542.3 ± 0.78
318.15 K, c1 = 0.0251	991.192 ± 1	1538.5 ± 0.78
318.15 K, c1 = 0.0586	992.506 ± 1	1540.5 ± 0.78
318.15 K, c1 = 0.1021	994.181 ± 1	1542.8 ± 0.78
318.15 K, c1 = 0.1483	995.954 ± 1	1545.1 ± 0.78
318.15 K, c1 = 0.2047	998.089 ± 1	1547.6 ± 0.78
318.15 K, c1 = 0.2543	999.952 ± 1	–
323.15 K, c1 = 0.0251	989.012 ± 1	1544.6 ± 0.78
323.15 K, c1 = 0.0586	990.317 ± 1	1546.5 ± 0.78
323.15 K, c1 = 0.1021	991.983 ± 1	–
323.15 K, c1 = 0.1483	993.747 ± 1	1551 ± 0.78
323.15 K, c1 = 0.2047	995.872 ± 1	1553.4 ± 0.78
323.15 K, c1 = 0.2543	997.725 ± 1	1555.2 ± 0.78
